Structures are written as SMILES.

IC50 data for 12 molecules are collected here from ChEMBL document CHEMBL4270495, “Oleanane-, ursane-, and quinone methide friedelane-type triterpenoid derivatives: Recent advances in cancer treatment” (Eur J Med Chem, 2017).

What all share (type): functional, cell-based
The subject of assay [1] is MCF7. The assay is described as follows: Cytotoxicity in human MCF7 cells assessed as reduction in cell viability incubated for 24 hrs by MTT assay. The note with it: MCF7, 24 h. In general terms: Tetrazolium dyes change colour on reduction, which living cells bring about.
For assay [2], the system named is MDA-MB-231. Description: Cytotoxicity in human MDA-MB-231 cells assessed as reduction in cell viability incubated for 24 hrs by MTT assay. Conditions: MDA-MB-231, 24 h.
Assay [3] has as its system TERT-RPE1. Description: Cytotoxicity in human hTERT-RPE1 cells assessed as reduction in cell viability incubated for 24 hrs by MTT assay. Conditions: RPE-1, 24 h.
Assay [4] concerns HeLa. Description: Cytotoxicity in human HeLa cells assessed as reduction in cell viability incubated for 72 hrs by MTT assay.

As for `CCOC(=O)/C=C/c1ccc(OC(=O)[C@@]2(C)CC[C@]3(C)CC[C@]4(C)C(=CC(=O)[C@@H]5[C@@]6(C)CC[C@H](OC(=O)[C@@H](N)CC[Se]C)C(C)(C)[C@@H]6CC[C@]54C)[C@H]3C2)c(OC)c1`, the half-inhibitory concentration (IC50) in assay [1] came out at 8.45 µM; in assay [2], 3.49 µM; in assay [3], 12.3 µM.
On to `CCOC(=O)/C=C/c1ccc(OC(=O)[C@@]2(C)CC[C@]3(C)CC[C@]4(C)C(=CC(=O)[C@@H]5[C@@]6(C)CC[C@H](OC(=O)[C@@H](N)CC[Se]C)C(C)(C)[C@@H]6CC[C@]54C)[C@H]3C2)cc1`, for which the IC50 turned out to be 2.42 µM in assay [1], 1.86 µM in assay [2] and 7.08 µM in assay [3].
Regarding `COC(=O)/C=C/c1ccc(OC(=O)[C@@]2(C)CC[C@]3(C)CC[C@]4(C)C(=CC(=O)[C@@H]5[C@@]6(C)CC[C@H](OC(=O)[C@@H](N)CCSC)C(C)(C)[C@@H]6CC[C@]54C)[C@H]3C2)c(OC)c1`, the IC50 in assay [1] stood at 6 µM; in assay [2], 3.52 µM; in assay [3] it was 10.4 µM.
With `CCOC(=O)/C=C/c1cccc(OC(=O)[C@@]2(C)CC[C@]3(C)CC[C@]4(C)C(=CC(=O)[C@@H]5[C@@]6(C)CC[C@H](OC(=O)[C@@H](N)CC[Se]C)C(C)(C)[C@@H]6CC[C@]54C)[C@H]3C2)c1`, the IC50 turned out to be 2.57 µM in assay [1], 1.53 µM in assay [2] and 3.7 µM in assay [3].
As to `CC(=O)OC[C@@]1(C)[C@@H]2CC[C@]3(C)[C@H](CC=C4[C@@H]5[C@@H](C)[C@H](C)CC[C@]5(C(=O)NO)CC[C@]43C)[C@@]2(C)C[C@@H](OC(C)=O)[C@@H]1OC(C)=O`, the IC50 in assay [4] turned out to be 1.62 µM.
Still for that read-out and setting: to `CC(=O)OC[C@@]1(C)[C@@H]2CC[C@]3(C)[C@H](CC=C4[C@@H]5[C@@H](C)[C@H](C)CC[C@]5(C(=O)N(C)O)CC[C@]43C)[C@@]2(C)C[C@@H](OC(C)=O)[C@@H]1OC(C)=O` belongs 3.77 µM.
On to `CCOC(=O)/C=C/c1ccc(OC)c(OC(=O)[C@@]2(C)CC[C@]3(C)CC[C@]4(C)C(=CC(=O)[C@@H]5[C@@]6(C)CC[C@H](OC(=O)[C@@H](N)CCSC)C(C)(C)[C@@H]6CC[C@]54C)[C@H]3C2)c1`, for which the 50% inhibitory concentration (IC50) in assay [1] amounted to 8.81 µM; in assay [2], 4.67 µM; in assay [3], 12.5 µM.
Regarding `CCOC(=O)/C=C/c1cccc(OC(=O)[C@@]2(C)CC[C@]3(C)CC[C@]4(C)C(=CC(=O)[C@@H]5[C@@]6(C)CC[C@H](OC(=O)[C@@H](N)CCSC)C(C)(C)[C@@H]6CC[C@]54C)[C@H]3C2)c1`, the results for the IC50 in assay [1], in assay [2] and in assay [3] were 5.79 µM, 1.92 µM and 6.63 µM, respectively.
For `COC(=O)/C=C/c1ccc(OC)c(OC(=O)[C@@]2(C)CC[C@]3(C)CC[C@]4(C)C(=CC(=O)[C@@H]5[C@@]6(C)CC[C@H](OC(=O)[C@@H](N)CCSC)C(C)(C)[C@@H]6CC[C@]54C)[C@H]3C2)c1`, in that order: 8.7 µM, 4.56 µM and 8.92 µM.
The corresponding values for `COC(=O)/C=C/c1cccc(OC(=O)[C@@]2(C)CC[C@]3(C)CC[C@]4(C)C(=CC(=O)[C@@H]5[C@@]6(C)CC[C@H](OC(=O)[C@@H](N)CC[Se]C)C(C)(C)[C@@H]6CC[C@]54C)[C@H]3C2)c1` are 3.48 µM, 2.46 µM and 4.55 µM.
The corresponding values for `COC(=O)/C=C/c1ccc(OC)c(OC(=O)[C@@]2(C)CC[C@]3(C)CC[C@]4(C)C(=CC(=O)[C@@H]5[C@@]6(C)CC[C@H](OC(=O)[C@@H](N)CC[Se]C)C(C)(C)[C@@H]6CC[C@]54C)[C@H]3C2)c1` are 5.12 µM, 3.13 µM and 9.79 µM.
As to `CCOC(=O)/C=C/c1ccc(OC(=O)[C@@]2(C)CC[C@]3(C)CC[C@]4(C)C(=CC(=O)[C@@H]5[C@@]6(C)CC[C@H](OC(=O)[C@@H](N)CCSC)C(C)(C)[C@@H]6CC[C@]54C)[C@H]3C2)cc1`, the IC50 in assay [1] worked out at 2.65 µM; in assay [2] it was 2.31 µM; in assay [3], 5.65 µM.

By IC50 is commonly meant the midpoint of a concentration-inhibition curve.
